{
  "source": "BindingDB's records for doi:10.1016/j.ejmech.2007.04.019",
  "about": "(The Hebrew University of Jerusalem, 2008)",
  "key": {"[1]": {"target": "Prostaglandin G/H synthase 1 (Homo sapiens, UniProt P23219)", "sequence (P23219 whole entry)": "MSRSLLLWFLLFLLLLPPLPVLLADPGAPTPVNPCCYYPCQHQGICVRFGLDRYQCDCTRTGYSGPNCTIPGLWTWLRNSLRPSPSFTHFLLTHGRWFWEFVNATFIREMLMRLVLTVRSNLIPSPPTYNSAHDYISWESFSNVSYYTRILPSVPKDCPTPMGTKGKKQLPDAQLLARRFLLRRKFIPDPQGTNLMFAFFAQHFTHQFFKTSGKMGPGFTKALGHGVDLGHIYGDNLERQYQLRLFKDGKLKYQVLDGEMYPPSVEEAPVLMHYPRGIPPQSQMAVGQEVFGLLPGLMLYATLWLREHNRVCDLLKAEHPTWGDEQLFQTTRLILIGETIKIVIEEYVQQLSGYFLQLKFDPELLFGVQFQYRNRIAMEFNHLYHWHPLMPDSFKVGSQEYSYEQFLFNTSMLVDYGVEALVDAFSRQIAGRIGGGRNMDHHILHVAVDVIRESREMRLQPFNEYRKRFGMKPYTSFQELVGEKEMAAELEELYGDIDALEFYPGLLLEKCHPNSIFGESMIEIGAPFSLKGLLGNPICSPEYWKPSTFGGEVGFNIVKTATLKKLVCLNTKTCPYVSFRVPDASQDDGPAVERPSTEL", "assay": "Inhibition of cyclooxygenase-1"}, "[2]": {"target": "T1, Prostaglandin G/H synthase 2 (Homo sapiens, UniProt P35354)", "T1 sequence (P35354 whole entry)": "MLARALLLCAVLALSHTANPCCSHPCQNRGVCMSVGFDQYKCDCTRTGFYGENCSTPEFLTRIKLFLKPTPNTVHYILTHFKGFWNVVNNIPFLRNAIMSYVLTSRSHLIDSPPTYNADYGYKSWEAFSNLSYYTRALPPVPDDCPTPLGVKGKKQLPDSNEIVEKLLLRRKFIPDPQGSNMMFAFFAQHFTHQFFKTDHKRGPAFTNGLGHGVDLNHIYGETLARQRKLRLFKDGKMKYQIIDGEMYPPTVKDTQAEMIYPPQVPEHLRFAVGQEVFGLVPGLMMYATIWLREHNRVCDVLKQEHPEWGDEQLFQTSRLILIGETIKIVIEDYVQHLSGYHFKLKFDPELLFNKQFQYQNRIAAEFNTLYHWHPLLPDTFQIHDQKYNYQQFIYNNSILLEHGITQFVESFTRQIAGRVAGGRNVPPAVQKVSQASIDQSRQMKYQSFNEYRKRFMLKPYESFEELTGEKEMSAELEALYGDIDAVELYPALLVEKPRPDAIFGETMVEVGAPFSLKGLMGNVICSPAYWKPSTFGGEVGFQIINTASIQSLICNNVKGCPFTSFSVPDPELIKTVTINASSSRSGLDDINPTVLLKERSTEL", "assay": "Inhibition of cyclooxygenase-2"}},
  "data": [
    {"smiles": "C=C[C@@H]1[C@@H](O)C[C@@H]2[C@]3(CC[C@]4(C)[C@@H]([C@H](C)CCC(OO)C(=C)C)CC[C@@]24C)C[C@]13CCC(=O)OC", "note": "(some centres not stated)", "values": [
      {"measurement": "IC50", "setting": "[1]", "value": 43.7, "unit": "µM"},
      {"measurement": "IC50", "setting": "[2]", "value": 4.7, "unit": "µM"}
    ]}
  ]
}
